Results reported in paper PMC8694051 (Proceedings of the National Academy of Sciences of the …, 2021).
Structures can show the parent of a compound that is named as a salt. Residues, ends and D or L forms follow the SMILES beside them.

How the values were obtained:
Hepsin = Hepsin (Homo sapiens, UniProt P05981); experiment: Hepsin enzyme inhibition (published assays); type: biochemical
Thrombin = Thrombin (Homo sapiens, UniProt P00734); experiment: Thrombin enzyme inhibition (published assays); type: biochemical
HGFA = biological target: T1, HGFA (Homo sapiens, UniProt Q04756); experiment: HGFA enzyme inhibition (published assays); type: biochemical
T1 sequence (Q04756 373-655): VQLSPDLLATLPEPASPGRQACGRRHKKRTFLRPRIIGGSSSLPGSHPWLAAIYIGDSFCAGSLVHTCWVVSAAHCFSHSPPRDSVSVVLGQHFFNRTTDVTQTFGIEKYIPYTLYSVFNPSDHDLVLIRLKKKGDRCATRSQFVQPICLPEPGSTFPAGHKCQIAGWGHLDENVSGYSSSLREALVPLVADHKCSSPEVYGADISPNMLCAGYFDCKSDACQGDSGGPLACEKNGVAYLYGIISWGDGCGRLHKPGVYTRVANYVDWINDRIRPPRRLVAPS

Matriptase = biological target: T2, Matriptase (Homo sapiens, UniProt Q9Y5Y6); experiment: Matriptase enzyme inhibition (published assays); type: biochemical
T2 sequence (Q9Y5Y6 1-855): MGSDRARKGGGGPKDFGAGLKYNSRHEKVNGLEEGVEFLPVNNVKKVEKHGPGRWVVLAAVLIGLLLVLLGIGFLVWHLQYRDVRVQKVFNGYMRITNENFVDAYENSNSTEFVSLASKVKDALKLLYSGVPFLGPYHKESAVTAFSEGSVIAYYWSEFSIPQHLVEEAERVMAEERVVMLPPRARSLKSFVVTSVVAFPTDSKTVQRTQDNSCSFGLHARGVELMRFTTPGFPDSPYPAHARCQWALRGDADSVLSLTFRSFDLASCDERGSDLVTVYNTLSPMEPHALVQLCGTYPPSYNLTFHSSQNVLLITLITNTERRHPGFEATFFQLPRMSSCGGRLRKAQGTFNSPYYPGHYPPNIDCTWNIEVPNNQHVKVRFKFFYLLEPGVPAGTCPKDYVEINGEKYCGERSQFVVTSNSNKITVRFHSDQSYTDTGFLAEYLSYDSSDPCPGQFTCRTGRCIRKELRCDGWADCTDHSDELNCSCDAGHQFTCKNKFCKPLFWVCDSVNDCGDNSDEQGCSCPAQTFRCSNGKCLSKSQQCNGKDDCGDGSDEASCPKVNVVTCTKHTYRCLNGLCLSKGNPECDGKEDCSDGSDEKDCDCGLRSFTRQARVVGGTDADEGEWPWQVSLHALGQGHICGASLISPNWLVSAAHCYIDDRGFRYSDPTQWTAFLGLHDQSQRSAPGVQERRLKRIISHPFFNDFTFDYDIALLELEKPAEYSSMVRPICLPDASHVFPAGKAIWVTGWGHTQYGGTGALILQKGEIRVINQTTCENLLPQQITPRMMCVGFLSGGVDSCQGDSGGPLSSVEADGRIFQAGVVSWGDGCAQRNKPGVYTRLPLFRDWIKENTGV

[1] = tested on: VSV-SARS-CoV-2-Spike protein Pseudotype virus; experiment: microbe, parasite or virus in culture; type: cell-based; conditions: read-out: VSV-SARS-CoV-2 Calu-3 EC50
Factor Xa = Factor Xa (Homo sapiens, UniProt P00742); experiment: Factor Xa enzyme inhibition (published assays); type: biochemical
Chain of Factor Xa (P00742 235-488 limits assumed): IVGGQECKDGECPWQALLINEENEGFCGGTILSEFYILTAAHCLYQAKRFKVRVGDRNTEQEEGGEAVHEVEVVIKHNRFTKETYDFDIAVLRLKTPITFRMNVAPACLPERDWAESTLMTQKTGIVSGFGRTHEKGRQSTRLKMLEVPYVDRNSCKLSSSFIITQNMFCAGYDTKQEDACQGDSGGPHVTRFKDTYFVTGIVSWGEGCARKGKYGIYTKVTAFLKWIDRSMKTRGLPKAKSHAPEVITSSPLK
Chain of Factor Xa (P00742 41-179 partner limits assumed): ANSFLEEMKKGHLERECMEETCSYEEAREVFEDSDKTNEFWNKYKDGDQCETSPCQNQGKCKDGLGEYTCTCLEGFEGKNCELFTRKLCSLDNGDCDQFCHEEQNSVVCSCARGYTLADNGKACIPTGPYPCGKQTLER

wild-type SARS-CoV-2 = experiment: microbe, parasite or virus in culture; type: cell-based; conditions: Severe acute respiratory syndrome coronavirus 2, Calu-3, 72 h, read-out: SARS-CoV-2 Wild-type Calu-3 IC50 (nM)
Caspase 6 = Caspase 6 (Homo sapiens, UniProt P55212); experiment: Protease profiling panel, 10-dose IC50; type: biochemical
Chain of Caspase 6 (P55212 24-293, species assumed): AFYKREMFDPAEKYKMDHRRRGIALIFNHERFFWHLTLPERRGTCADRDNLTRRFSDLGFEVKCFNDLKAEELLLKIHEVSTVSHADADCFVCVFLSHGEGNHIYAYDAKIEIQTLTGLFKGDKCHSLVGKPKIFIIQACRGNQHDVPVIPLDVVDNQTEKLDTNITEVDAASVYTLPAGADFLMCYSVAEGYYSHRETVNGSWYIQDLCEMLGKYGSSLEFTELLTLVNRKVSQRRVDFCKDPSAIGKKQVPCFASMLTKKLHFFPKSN

Caspase 7 = Caspase 7 (Homo sapiens, UniProt P55210); experiment: Protease profiling panel, 10-dose IC50; type: biochemical
Proteinase A = type: biochemical
Kallikrein 1 = Kallikrein 1 (Homo sapiens, UniProt P06870); experiment: Protease profiling panel, 10-dose IC50; type: biochemical
Chain of Kallikrein 1 (P06870 25-262, species assumed): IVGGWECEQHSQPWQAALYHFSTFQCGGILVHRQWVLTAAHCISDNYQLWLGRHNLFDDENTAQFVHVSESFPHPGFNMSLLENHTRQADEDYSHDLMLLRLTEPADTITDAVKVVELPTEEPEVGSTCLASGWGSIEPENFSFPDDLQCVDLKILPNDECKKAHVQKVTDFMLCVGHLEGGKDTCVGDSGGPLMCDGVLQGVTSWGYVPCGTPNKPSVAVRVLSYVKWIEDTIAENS

Thrombin a = Thrombin a (Homo sapiens, UniProt P00734); experiment: Protease profiling panel, 10-dose IC50; type: biochemical
Tryptase g1 = Tryptase g1 (Homo sapiens, UniProt Q9NRR2); experiment: Protease profiling panel, 10-dose IC50; type: biochemical; conditions: values lower than 1.02E-09 M estimated from best curve
FXa = FXa (Homo sapiens, UniProt P00742); experiment: Protease profiling panel, 10-dose IC50; type: biochemical
Chain of FXa (P00742 235-488 limits assumed): as the sequence (P00742 235-488 limits assumed) above
Chain of FXa (P00742 41-179 partner limits assumed): as the sequence (P00742 41-179 partner limits assumed) above

Plasma Kallikrein = Plasma Kallikrein (Homo sapiens, UniProt P03952); experiment: Protease profiling panel, 10-dose IC50; type: biochemical
Tryptase b2 = Tryptase b2 (Homo sapiens, UniProt P20231); experiment: Protease profiling panel, 10-dose IC50; type: biochemical; conditions: values lower than 1.02E-09 M estimated from best curve
Kallikrein 7 = Kallikrein 7 (Homo sapiens, UniProt P49862); experiment: Protease profiling panel, 10-dose IC50; type: biochemical
Chain of Kallikrein 7 (P49862 30-253, species assumed): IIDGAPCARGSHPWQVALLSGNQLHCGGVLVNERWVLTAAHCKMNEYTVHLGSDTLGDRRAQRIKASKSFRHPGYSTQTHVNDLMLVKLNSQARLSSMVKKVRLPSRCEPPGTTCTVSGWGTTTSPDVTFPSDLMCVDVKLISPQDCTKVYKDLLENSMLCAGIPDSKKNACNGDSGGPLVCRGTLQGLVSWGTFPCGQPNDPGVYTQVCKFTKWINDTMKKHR

Kallikrein 14 = Kallikrein 14 (Homo sapiens, UniProt Q9P0G3); experiment: Protease profiling panel, 10-dose IC50; type: biochemical
Trypsin = Trypsin (Bos taurus, UniProt P00760); experiment: Protease profiling panel, 10-dose IC50; type: biochemical; conditions: values lower than 1.02E-09 M estimated from best curve
Plasmin = Plasmin (Homo sapiens, UniProt P00747); experiment: Protease profiling panel, 10-dose IC50; type: biochemical
Kallikrein 12 = Kallikrein 12 (Homo sapiens, UniProt Q9UKR0); experiment: Protease profiling panel, 10-dose IC50; type: biochemical
Chain of Kallikrein 12 (Q9UKR0 18-248, species assumed): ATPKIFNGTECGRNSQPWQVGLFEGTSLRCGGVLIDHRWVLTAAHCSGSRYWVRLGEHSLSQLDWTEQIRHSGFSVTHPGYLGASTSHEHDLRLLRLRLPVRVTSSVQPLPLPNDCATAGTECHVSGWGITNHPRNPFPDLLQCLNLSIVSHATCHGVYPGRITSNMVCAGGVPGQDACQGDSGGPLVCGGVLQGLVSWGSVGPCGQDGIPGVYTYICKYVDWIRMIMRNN

Kallikrein 13 = Kallikrein 13 (Homo sapiens, UniProt Q9UKR3); experiment: Protease profiling panel, 10-dose IC50; type: biochemical
Matriptase 2 = Matriptase 2 (Homo sapiens, UniProt Q8IU80); experiment: Protease profiling panel, 10-dose IC50; type: biochemical; conditions: values lower than 1.02E-09 M estimated from best curve
Chain of Matriptase 2 (Q8IU80 whole entry, species assumed): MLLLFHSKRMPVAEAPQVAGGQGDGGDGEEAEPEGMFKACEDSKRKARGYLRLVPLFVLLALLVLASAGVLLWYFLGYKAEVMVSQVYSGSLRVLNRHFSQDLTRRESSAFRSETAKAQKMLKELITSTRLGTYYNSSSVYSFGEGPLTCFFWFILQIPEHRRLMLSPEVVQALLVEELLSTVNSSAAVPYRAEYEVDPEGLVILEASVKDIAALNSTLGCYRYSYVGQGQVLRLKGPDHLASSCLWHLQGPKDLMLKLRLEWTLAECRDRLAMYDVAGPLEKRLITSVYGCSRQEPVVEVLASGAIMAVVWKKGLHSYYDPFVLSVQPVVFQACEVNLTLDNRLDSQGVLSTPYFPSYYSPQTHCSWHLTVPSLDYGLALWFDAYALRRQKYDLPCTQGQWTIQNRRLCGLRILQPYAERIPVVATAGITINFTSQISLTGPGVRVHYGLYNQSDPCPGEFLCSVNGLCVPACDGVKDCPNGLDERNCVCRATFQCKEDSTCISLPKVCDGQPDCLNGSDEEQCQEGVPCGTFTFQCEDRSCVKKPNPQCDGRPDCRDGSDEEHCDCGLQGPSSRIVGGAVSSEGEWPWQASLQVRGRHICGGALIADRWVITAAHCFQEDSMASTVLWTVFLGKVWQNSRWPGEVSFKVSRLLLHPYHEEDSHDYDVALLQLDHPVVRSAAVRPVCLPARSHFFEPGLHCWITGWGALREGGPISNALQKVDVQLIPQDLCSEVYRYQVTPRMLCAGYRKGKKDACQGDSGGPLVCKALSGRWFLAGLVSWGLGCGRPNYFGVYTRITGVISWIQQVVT

Urokinase = Urokinase (Homo sapiens, UniProt P00749); experiment: Protease profiling panel, 10-dose IC50; type: biochemical
Kallikrein 5 = Kallikrein 5 (Homo sapiens, UniProt Q9Y337); experiment: Protease profiling panel, 10-dose IC50; type: biochemical
Caspase 8 = Caspase 8 (Homo sapiens, UniProt Q14790); experiment: Protease profiling panel, 10-dose IC50; type: biochemical
Chain of Caspase 8 (Q14790 217-479, species assumed): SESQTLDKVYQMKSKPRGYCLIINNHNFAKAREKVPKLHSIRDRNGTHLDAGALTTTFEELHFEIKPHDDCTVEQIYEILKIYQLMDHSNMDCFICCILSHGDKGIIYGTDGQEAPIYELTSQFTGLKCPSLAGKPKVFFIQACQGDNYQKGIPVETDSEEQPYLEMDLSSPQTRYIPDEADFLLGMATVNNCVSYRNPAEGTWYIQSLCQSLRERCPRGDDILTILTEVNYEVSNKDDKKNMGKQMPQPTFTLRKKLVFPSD

Caspase 1 = Caspase 1 (Homo sapiens, UniProt P29466); experiment: Protease profiling panel, 10-dose IC50; type: biochemical
Chain of Caspase 1 (P29466 120-404, species assumed): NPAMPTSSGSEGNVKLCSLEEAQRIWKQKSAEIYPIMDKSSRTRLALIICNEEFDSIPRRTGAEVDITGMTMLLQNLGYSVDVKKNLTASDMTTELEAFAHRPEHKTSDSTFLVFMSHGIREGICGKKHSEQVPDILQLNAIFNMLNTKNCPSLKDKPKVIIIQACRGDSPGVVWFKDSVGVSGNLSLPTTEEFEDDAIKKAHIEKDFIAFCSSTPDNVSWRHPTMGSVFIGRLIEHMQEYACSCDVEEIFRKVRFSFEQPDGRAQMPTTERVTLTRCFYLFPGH

Caspase 11 = Caspase 11 (Mus musculus, UniProt P70343); experiment: Protease profiling panel, 10-dose IC50; type: biochemical
Caspase 10 = Caspase 10 (Homo sapiens, UniProt Q92851); experiment: Protease profiling panel, 10-dose IC50; type: biochemical
Chain of Caspase 10 (Q92851 220-521, species assumed): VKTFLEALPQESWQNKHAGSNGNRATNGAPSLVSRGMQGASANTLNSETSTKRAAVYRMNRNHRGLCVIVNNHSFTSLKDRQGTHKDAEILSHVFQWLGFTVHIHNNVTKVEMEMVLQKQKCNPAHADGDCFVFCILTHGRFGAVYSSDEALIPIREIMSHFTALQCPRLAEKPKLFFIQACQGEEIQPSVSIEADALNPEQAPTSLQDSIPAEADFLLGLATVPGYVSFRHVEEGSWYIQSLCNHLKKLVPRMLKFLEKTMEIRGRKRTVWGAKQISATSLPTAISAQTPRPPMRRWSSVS

Caspase 2 = Caspase 2 (Homo sapiens, UniProt P42575); experiment: Protease profiling panel, 10-dose IC50; type: biochemical
Chain of Caspase 2 (P42575 whole entry, species assumed): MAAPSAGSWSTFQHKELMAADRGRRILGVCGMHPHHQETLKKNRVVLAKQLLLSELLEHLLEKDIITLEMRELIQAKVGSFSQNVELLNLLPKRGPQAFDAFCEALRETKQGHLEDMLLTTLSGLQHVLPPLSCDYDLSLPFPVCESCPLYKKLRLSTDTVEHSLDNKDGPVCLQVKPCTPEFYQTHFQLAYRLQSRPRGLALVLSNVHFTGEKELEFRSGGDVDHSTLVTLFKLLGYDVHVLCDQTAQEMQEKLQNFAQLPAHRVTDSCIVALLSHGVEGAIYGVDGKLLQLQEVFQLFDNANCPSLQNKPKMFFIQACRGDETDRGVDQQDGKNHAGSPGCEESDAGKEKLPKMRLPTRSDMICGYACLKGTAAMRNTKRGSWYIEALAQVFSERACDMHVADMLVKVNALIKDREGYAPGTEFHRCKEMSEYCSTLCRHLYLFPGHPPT

Caspase 9 = Caspase 9 (Homo sapiens, UniProt P55211); experiment: Protease profiling panel, 10-dose IC50; type: biochemical
Caspase 5 = Caspase 5 (Homo sapiens, UniProt P51878); experiment: Protease profiling panel, 10-dose IC50; type: biochemical
Caspase 4 = Caspase 4 (Homo sapiens, UniProt P49662); experiment: Protease profiling panel, 10-dose IC50; type: biochemical
Chain of Caspase 4 (P49662 81-377, species assumed): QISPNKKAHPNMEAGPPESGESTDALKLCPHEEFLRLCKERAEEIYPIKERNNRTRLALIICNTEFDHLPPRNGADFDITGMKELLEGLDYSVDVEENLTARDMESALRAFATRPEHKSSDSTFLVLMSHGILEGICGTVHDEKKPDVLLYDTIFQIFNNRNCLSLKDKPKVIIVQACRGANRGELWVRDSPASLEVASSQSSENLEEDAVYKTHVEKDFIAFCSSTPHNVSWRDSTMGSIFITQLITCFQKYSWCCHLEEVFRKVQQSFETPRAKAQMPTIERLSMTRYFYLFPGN

Cathepsin C = Cathepsin C (Homo sapiens, UniProt P53634); experiment: Protease profiling panel, 10-dose IC50; type: biochemical
Cathepsin H = Cathepsin H (Homo sapiens, UniProt P09668); experiment: Protease profiling panel, 10-dose IC50; type: biochemical
Cathepsin V = Cathepsin V (Homo sapiens, UniProt O60911); experiment: Protease profiling panel, 10-dose IC50; type: biochemical
Papain = Papain (Carica papaya, UniProt P00784); experiment: Protease profiling panel, 10-dose IC50; type: biochemical
Cathepsin S = Cathepsin S (Homo sapiens, UniProt P25774); experiment: Protease profiling panel, 10-dose IC50; type: biochemical
Cathepsin L = Cathepsin L (Homo sapiens, UniProt P07711); experiment: Protease profiling panel, 10-dose IC50; type: biochemical
Chain of Cathepsin L (P07711 114-333, species assumed): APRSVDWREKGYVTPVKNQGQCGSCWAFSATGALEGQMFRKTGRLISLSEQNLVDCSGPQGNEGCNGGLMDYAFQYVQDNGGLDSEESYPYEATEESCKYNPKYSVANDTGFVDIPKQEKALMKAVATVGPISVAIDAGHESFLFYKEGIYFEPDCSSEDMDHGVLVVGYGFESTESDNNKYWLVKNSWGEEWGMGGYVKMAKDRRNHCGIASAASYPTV

Calpain 1 = Calpain 1 (Homo sapiens, UniProt P07384); experiment: Protease profiling panel, 10-dose IC50; type: biochemical
Cathepsin B = Cathepsin B (Homo sapiens, UniProt P07858); experiment: Protease profiling panel, 10-dose IC50; type: biochemical
TMPRSS2 protease domain = TMPRSS2 protease domain (Homo sapiens, UniProt O15393); type: biochemical
Chain of TMPRSS2 protease domain (O15393 256-492): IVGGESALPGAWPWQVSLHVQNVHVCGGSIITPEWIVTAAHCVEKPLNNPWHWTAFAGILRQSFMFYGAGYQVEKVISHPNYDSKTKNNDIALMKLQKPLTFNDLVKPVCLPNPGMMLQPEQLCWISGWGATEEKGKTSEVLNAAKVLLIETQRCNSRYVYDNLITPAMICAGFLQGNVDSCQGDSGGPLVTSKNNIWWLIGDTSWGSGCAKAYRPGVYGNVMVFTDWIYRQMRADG

Chain of Hepsin (P05981 whole entry): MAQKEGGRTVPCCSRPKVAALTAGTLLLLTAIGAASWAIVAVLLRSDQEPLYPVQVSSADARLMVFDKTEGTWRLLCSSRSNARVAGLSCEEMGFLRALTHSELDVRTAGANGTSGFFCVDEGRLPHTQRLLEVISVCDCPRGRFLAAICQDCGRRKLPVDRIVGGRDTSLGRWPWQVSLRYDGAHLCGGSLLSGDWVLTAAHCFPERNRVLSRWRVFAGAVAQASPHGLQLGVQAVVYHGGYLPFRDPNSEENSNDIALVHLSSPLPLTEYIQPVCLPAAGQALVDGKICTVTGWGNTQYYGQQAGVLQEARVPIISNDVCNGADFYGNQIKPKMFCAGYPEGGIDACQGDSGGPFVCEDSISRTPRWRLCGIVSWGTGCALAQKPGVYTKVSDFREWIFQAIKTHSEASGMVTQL

| Molecule | IC50 (Hepsin) [nM] | IC50 (Thrombin) [nM] | IC50 (HGFA) [nM] | IC50 (Matriptase) [nM] | IC50 (Factor Xa) [nM] | other results |
| --- | --- | --- | --- | --- | --- | --- |
| CC(=O)N[C@H](Cc1c[nH]c2ccccc12)C(=O)N[C@@H](Cc1ccccc1)C(=O)N[C@@H](CCCNC(=N)N)C(=O)c1nc2ccccc2s1 [Compound 13, Ac-dWFR-kbt] | 1.1 | 3700 | 27 | 2.6 | 98 | EC50 [1]: 32 nM |
| CC(=O)NC(CO)C(=O)NC(CCCCN)C(=O)NC(CC(C)C)C(=O)NC(CCCNC(=N)N)C(=O)c1nc2ccccc2s1 (centres unmarked) [Compound 3, Ac-SKLR-kbt] | 0.32 | > 20000 | 66 | 6.1 | 3800 |  |
| N=C(N)c1ccc2cc(OC(=O)c3ccc(N=C(N)N)cc3)ccc2c1 [Nafamostat, reference compound] | 0.9 | 5020 | 158 |  | 4570 | IC50 (wild-type SARS-CoV-2): 220 nM |
| Cyclo(DMK)R-kbt [Compound 19] | 5.9 | 18500 | 3240 | 1 | 1390 | EC50 [1]: 119 nM |
| CC(=O)N[C@@H](CO)C(=O)N[C@@H](CCCCN)C(=O)N[C@@H](Cc1ccccc1)C(=O)N[C@@H](CCCNC(=N)N)C(=O)c1nccs1 [Compound 9, Ac-SKFR-kt] | 17 | > 20000 | 114 | 6.1 | 1060 |  |
| CC(=O)N[C@@H](CC(=O)O)C(=O)N[C@@H](CCC(=O)O)C(=O)N[C@H](C(=O)N[C@H](C=O)CC(=O)O)C(C)C [DEVD-CHO] |  |  |  |  |  | IC50 (Caspase 6): 12.4 nM; IC50 (Caspase 7): 2.31 nM |
| CC(=O)N[C@@H](CC(C)C)C(=O)N[C@@H](CC(C)C)C(=O)N[C@H](C=O)CCCNC(=N)N [Leupeptin] |  |  |  |  |  | IC50 (Proteinase A): 244000 nM; IC50 (Kallikrein 1): 4610 nM |
| CC(=O)N[C@@H](Cc1c[nH]c2ccccc12)C(=O)N[C@@H](Cc1ccccc1)C(=O)N[C@@H](CCCNC(=N)N)C(=O)c1nc2ccccc2s1 [Compound 8, Ac-WFR-kbt] | 7.6 | > 20000 | 329 | 5.7 | 22 |  |
| CCOC(=O)c1ccc(OC(=O)CCCCCN=C(N)N)cc1 [Gabexate mesylate] |  |  |  |  |  | IC50 (Thrombin a): 1570 nM; IC50 (Tryptase g1): 13.3 nM; IC50 (FXa): 1860 nM; IC50 (Plasma Kallikrein): 148 nM; IC50 (Tryptase b2): 9.7 nM; IC50 (Kallikrein 7): 43100 nM; IC50 (Kallikrein 14): 651 nM; IC50 (Trypsin): 30.7 nM; IC50 (Plasmin): 265 nM; IC50 (Kallikrein 12): 94.3 nM; IC50 (Kallikrein 13): 12200 nM; IC50 (Matriptase 2): 391 nM; IC50 (Urokinase): 24.4 nM; IC50 (Kallikrein 5): 4940 nM |
| CC[C@H](C)[C@H](NC(C)=O)C(=O)N[C@@H](CCC(=O)O)C(=O)N[C@H](C(=O)N[C@H](C=O)CC(=O)O)[C@@H](C)O [IETD-CHO] (Ac-IETD-aldehyde) |  |  |  |  |  | IC50 (Caspase 8): 2.83 nM; IC50 (Caspase 1): 29.2 nM; IC50 (Caspase 11): 567 nM; IC50 (Caspase 10): 9.17 nM; IC50 (Caspase 2): 547 nM; IC50 (Caspase 9): 26.4 nM; IC50 (Caspase 5): 11.5 nM; IC50 (Caspase 4): 2130 nM |
| Cyclo(DQK)R-kbt [Compound 20] | 22 | > 20000 | 16100 | 7.7 | > 20000 | EC50 [1]: 138 nM |
| CC(=O)N[C@@H](CC(C)C)C(=O)N[C@@H](CC(C)C)C(=O)N[C@@H](CCCNC(=N)N)C(=O)c1nccs1 [Compound 18, Ac-LLR-kt] | 4.6 |  | 506 | 56 |  | EC50 [1]: 349 nM |
| CC(=O)N[C@@H](Cc1ccccc1)C(=O)N[C@@H](CC(C)C)C(=O)N[C@@H](Cc1ccccc1)C(=O)N[C@@H](CCCNC(=N)N)C(=O)c1nc2ccccc2s1 [Compound 12, Ac-FLFR-kbt] | 2.9 | > 20000 | 228 | 7.2 | 26 |  |
| CC(C)C[C@H](NC(=O)[C@H]1O[C@@H]1C(=O)O)C(=O)NCCCCN=C(N)N [Compound E64, E64] |  |  |  |  |  | IC50 (Cathepsin C): 1180 nM; IC50 (Cathepsin H): 35.6 nM; IC50 (Cathepsin V): 3.89 nM; IC50 (Papain): 0.24 nM; IC50 (Cathepsin S): 1.73 nM; IC50 (Cathepsin L): 12.4 nM; IC50 (Calpain 1): 47.1 nM; IC50 (Cathepsin B): 7.33 nM |
| CCC(CC)COC(=O)[C@H](C)N[P@](=O)(OC[C@H]1O[C@@](C#N)(c2ccc3c(N)ncnn23)[C@H](O)[C@@H]1O)Oc1ccccc1 [Remdesivir] |  |  |  |  |  | IC50 (wild-type SARS-CoV-2): 1270 nM |
| (MCA)-K-KARSAFA-K-(DnP) |  |  |  |  |  | Km (TMPRSS2 protease domain): 0.6 ± 0.05 µM; kcat (TMPRSS2 protease domain): 0.07 s⁻¹ |
| CC(=O)N[C@@H](CO)C(=O)N[C@@H](CCC(N)=O)C(=O)N[C@@H](CC(C)C)C(=O)N[C@@H](CCCNC(=N)N)C(=O)c1nccs1 [Compound 11, Ac-SQLR-kt] | 0.68 |  | 364 | 18 |  |  |
| CC(=O)N[C@@H](CCCCN)C(=O)N[C@@H](CCC(N)=O)C(=O)N[C@@H](Cc1ccccc1)C(=O)N[C@@H](CCCNC(=N)N)C(=O)c1nccs1 [Compound 10, Ac-KQFR-kt] | 1.2 | > 20000 | 116 | 1.4 | 158 |  |
| Cyclo(allylGLY)R-kbt [Compound 21] | 20 | > 20000 | > 20000 | 14 | 8810 | EC50 [1]: 565 nM |
